Values joined by “and” are separate entries in the source; they are usually repeats but may differ in a detail not shown here. Equal values may be shown once. Read-outs that look alike come from different tables or passages of the source.

One data set concerns ovarian cancer. The conditions noted are these: relapsed ovarian cancer, cited from earlier work.
Data set [1] addresses T1, thymidylate synthase (TS) (Homo sapiens, UniProt P04818).
T1 construct: endogenous in cells; host or cells: tissues of treated patients (in vivo)
As to conditions: ref Ford et al, 2002, cited from earlier work.

Data set [2] can be described thus: BGC9331 plasma pharmacokinetics by ELISA in phase I patients. As to conditions: for Median Cmax / Median plasma clearance: ±s.d.; for AUClast / Cl_obs / Cmax / HL_Lambda_z / Vz_obs: BGC9331 65 mg m^−2, carboplatin AUC 5. Background: ELISA stands for enzyme-linked immunosorbent assay.
Description: (§1) Prior to each assay the plasma samples were centrifuged at 3000 g for 5 min × 2, to sediment precipitants that would block pipette tips.
(§2) All dilutions required for the ELISA were performed by Multiprobe II automated liquid handling equipment (Perkin-Elmer, Cambridge, UK). […] Following further incubation and washing steps, the optical absorbance was read and plotted using a four-parameter logistic curve fitted by nonlinear regression as previously described ([Aherne et al, 2001]).
(§3) PK analysis was performed using WinNonlin Software, version 3.2 (Pharsight Corp., CA, USA). […] The following PK parameters were evaluated: maximum plasma concentration (Cmax), area under the plasma concentration–time curve (AUC), total body clearance (Cl), volume of distribution at steady state (Vss) and the terminal half-life (t1/2).
Details of data set [3]: method as in Plummer et al, 2003. As to conditions: ref Plummer et al, 2003, cited from earlier work; for AUC: mass spectroscopy.
For data set [4] the following is noted: cited from earlier work.
The next data set in a line: clinical. As to conditions: human, plasma.
For data set [5], the system named is folyl-polyglutamate synthase (FPGS). More on the design: method as in Jackman et al, 1993. The conditions noted are these: compared to RTX; ref Jackman et al, 1993; cited from earlier work.
The test system of data set [6] is human ovarian tumour cell lines. The conditions noted are these: ref Kelland et al, 1995; cited from earlier work.
Data set [7] in a line: Carboplatin pharmacokinetics by flameless atomic absorption spectrophotometry (FAAS). The conditions noted are these: free carboplatin, carboplatin AUC 5 with BGC9331. As to the method:
Carboplatin was measured by FAAS. This method has been previously described ([LeRoy et al, 1977]). Samples were analysed on a Perkin-Elmer HGA800, AA300 Flameless atomic absorption spectrophotometer, and a Platinum Lumina HCC lamp (Perkin-Elmer, Beaconsfield, UK).
Calibration standards were prepared individually for each assay batch by adding Carboplatin standards to control human plasma and ultrafiltrate. A blank was made using either plasma or ultrafiltrate only. A range of standards was made ranging from 5 to 50 ng ml^−1 Pt (plasma samples) to 10–150 ng ml^−1 Pt (ultrafiltrates).
For plasma analysis, three QCs were included in duplicate, ranging from low (15ng ml^−1 Pt) to medium (25 ng ml^−1 Pt) and high (45 ng ml^−1 Pt), by diluting stock solutions with plasma. For ultrafiltrate analysis low (20 ng ml^−1 Pt), medium (60 ng ml^−1 Pt) and high (120 ng ml^−1 Pt) QCs and stock solutions were diluted with plasma ultrafiltrate. A run was acceptable if four out of six QCs were within 15% of nominal concentration.

Where [8] appears, read: dose level 1 (BGC9331 40 mg m^−2, carboplatin AUC 5), day 1.
[9] abbreviates: dose level 1 (BGC9331 40 mg m^−2, carboplatin AUC 5), day 8.
Setting [10] is: dose level 2 (BGC9331 65 mg m^−2, carboplatin AUC 5), day 1.
The mark [11] stands for this setting: dose level 2 (BGC9331 65 mg m^−2, carboplatin AUC 5), day 8.

T1 sequence (P04818 2-313 limits assumed): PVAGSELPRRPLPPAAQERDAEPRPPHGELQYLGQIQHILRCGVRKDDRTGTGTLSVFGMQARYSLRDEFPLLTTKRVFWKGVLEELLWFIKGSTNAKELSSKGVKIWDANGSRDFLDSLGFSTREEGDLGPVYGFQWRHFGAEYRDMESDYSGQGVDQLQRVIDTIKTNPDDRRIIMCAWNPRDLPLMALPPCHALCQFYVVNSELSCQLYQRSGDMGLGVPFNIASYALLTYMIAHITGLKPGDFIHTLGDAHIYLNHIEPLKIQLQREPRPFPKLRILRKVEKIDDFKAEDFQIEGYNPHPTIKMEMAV
Description for clinical: as §1, §2, §3

`O=c1[nH]cc(F)c(=O)[nH]1` [5-FU, 5-fluorouracil]: the response rate in the data set on ovarian cancer (ref Look et al, 1995) is 14%. In addition, the “peak dUrd elevation” value was 235±125% in data set [1] (bolus 5-FU) and 228±86% in data set [1] (infusional 5-FU).

The Cmax is the highest concentration seen after dosing. As usually defined, the AUC is the area under the concentration-time curve, a measure of exposure. As usually defined, the Tmax is the time from dosing to the highest level. As for `C#CCN(Cc1cc2c(=O)[nH]c(C)nc2cc1C)c1ccc(C(=O)N[C@@H](CCc2nnn[nH]2)C(=O)O)c(F)c1` [BGC9331], the “Median Cmax” value in data set [2] (setting [8]) is 11200 ± 2500 ng/mL and 11210 ng/mL; in [2] (setting [9]) it was 7300 ± 5000 ng/mL; in data set [2] (setting [10]), 16500 ± 2400 ng/mL and 16540 ng/mL; in [2] (setting [11]), 10400 ± 4000 ng/mL. Also, the Median plasma clearance is 478 ± 61 mL/h in [2] (setting [8]), 971 ± 265 mL/h in [2] (setting [9]), 1197 ± 580 mL/h in data set [2] (setting [10]) and 746 ± 584 mL/h in data set [2] (setting [11]). Further, the AUClast is 90.4 µg·mL/h in data set [2] (patient 4, administration 1); 68.4 µg·mL/h in data set [2] (patient 4, administration 2); 264.6 µg·mL/h in data set [2] (patient 5, administration 1); 193.3 µg·mL/h in [2] (patient 5, administration 2); 141.3 µg·mL/h in [2] (patient 6, administration 2). Also, the Cl_obs amounted to 1197.5 mL/h in data set [2] (patient 4, administration 1); 1646.5 mL/h in data set [2] (patient 4, administration 2); 378.4 mL/h in data set [2] (patient 5, administration 1); 549.2 mL/h in data set [2] (patient 5, administration 2); 746.0 mL/h in [2] (patient 6, administration 2). Moreover, the Cmax is 16800 ng/mL in data set [2] (patient 4, administration 1); 10400 ng/mL in [2] (patient 4, administration 2); 16600 ng/mL in data set [2] (patient 5, administration 1); 16700 ng/mL in data set [2] (patient 5, administration 2); 9300 ng/mL in data set [2] (patient 6, administration 2); 10400 ng/mL in [3] (BGC9331 monotherapy 42 mg m^−2). The highest concentration (Cmax) was 19100 ng/mL in [3] (BGC9331 monotherapy 69 mg m^−2), 7260 ng/mL in the data set “clinical” (40 mg) and 10400 ng/mL in the data set “clinical” (65 mg). Besides, the HL_Lambda_z came out at 18.2 h in [2] (patient 4, administration 1); 27.8 h in [2] (patient 4, administration 2); 25.5 h in data set [2] (patient 5, administration 1); 28.1 h in [2] (patient 6, administration 2). The Vz_obs in data set [2] (patient 4, administration 1) came to 31423.8 mL; in data set [2] (patient 4, administration 2) it was 66088.6 mL; in data set [2] (patient 5, administration 1), 13891.3 mL; in data set [2] (patient 5, administration 2), 17208.1 mL; in [2] (patient 6, administration 2), 30257.3 mL. Also, the AUC was 176 µg·h/mL in data set [3] (BGC9331 monotherapy 42 mg m^−2), 322 µg·h/mL in [3] (BGC9331 monotherapy 69 mg m^−2), 110 µg·h/mL in “clinical” (40 mg) and 140 µg·h/mL in the data set “clinical” (65 mg). In [4] (BGC9331 130 mg m^−2 days 1 and 8 with cisplatin 75 mg m^−2, ref Bilenker et al, 2004), the “patients with grade 3 or 4 neutropaenia” value is “three of the four”. Moreover, in data set [4] (previous studies, ref Rader et al, 2003), the “patients affected by diarrhoea” value is given as 36%. In data set [4] (ref Plummer et al, 2003), the “recommended single-agent phase II dose” value is on record as 130 mg m^−2. Further, the Tmax in “clinical” (65 mg) came out at 30 min.

For the compound `C#CCN(Cc1ccc2nc(N)[nH]c(=O)c2c1)c1ccc(C(=O)N[C@@H](CCC(=O)O)C(=O)O)cc1` [CB3717, N10-propargyl-5,8-dideazafolic acid], in [5], the “substrate for FPGS” value was “relatively poor substrate”. Further, the “cross-resistance to platinum-based agents” value in [6] is recorded as “non crossresistance”.

Usually Vss stands for the apparent volume that relates the amount in the body to the concentration in plasma or blood. A low value points to confinement near the circulation. `N.N.O=C([O-])C1(C(=O)[O-])CCC1.[Pt+2]` [carboplatin]: the Alpha_HL in data set [7] (patient 1, dose level 1) came to 2.2 h; in [7] (patient 3, dose level 1) it was 1.2 h; in data set [7] (patient 4, dose level 2) it was 2.4 h; in data set [7] (patient 5, dose level 2), 1.5 h; in [7] (patient 6, dose level 2) it was 1.8 h; in [7] (patient 14, dose level 3), 0.4 h. For the same compound, the Beta_HL in data set [7] (patient 1, dose level 1) is recorded as 50.3 h; in data set [7] (patient 3, dose level 1), 8.2 h; in data set [7] (patient 4, dose level 2), 100.9 h; in data set [7] (patient 5, dose level 2) it was 92.0 h; in data set [7] (patient 6, dose level 2) it was 60.4 h; in data set [7] (patient 14, dose level 3) it was 2.6 h. Further, the CL in data set [7] (patient 1, dose level 1) amounted to 8.7 L/h; in data set [7] (patient 3, dose level 1), 4.8 L/h; in data set [7] (patient 4, dose level 2), 7.0 L/h; in data set [7] (patient 5, dose level 2), 6.0 L/h; in data set [7] (patient 6, dose level 2) it was 6.7 L/h; in [7] (patient 14, dose level 3), 6.1 L/h. Besides, the V2 amounted to 91.2 L in [7] (patient 1, dose level 1); 15.1 L in data set [7] (patient 3, dose level 1); 158.5 L in [7] (patient 4, dose level 2); 101.0 L in data set [7] (patient 5, dose level 2); 88.9 L in [7] (patient 6, dose level 2); 8.6 L in data set [7] (patient 14, dose level 3). The Vss in data set [7] (patient 1, dose level 1) stood at 123.3 L; in [7] (patient 3, dose level 1) it was 27.1 L; in data set [7] (patient 4, dose level 2) it was 186.5 L; in data set [7] (patient 5, dose level 2), 115.6 L; in data set [7] (patient 6, dose level 2), 109.7 L; in data set [7] (patient 14, dose level 3) it was 16.5 L.

On to `Cc1nc2ccc(CN(C)c3ccc(C(=O)N[C@@H](CCC(=O)O)C(=O)O)s3)cc2c(=O)[nH]1` [raltitrexed], for which the response rate in the data set on ovarian cancer (ref Gore et al, 1995) is 7%. Besides, in the data set on ovarian cancer (ref Muggia et al, 1998), the response rate was 11%. Moreover, the “cross-resistance to platinum-based agents” value in data set [6] is given as “non crossresistance”. For the same compound, in data set [1] (RTX on a 21-day cycle), the “day on which dUrd reapproaches baseline” value was approximately 15 days and the “peak percentage rise of dUrd” value is 349±128%.

(Values after publication PMC2361661 (British Journal of Cancer, 2005).)
